# Results taken from patent publication US10639284B2, “Immunomodulator compounds” (CHEMOCENTRYX, INC., priority 2016, dated 2020).
# Target: human PD-L1 / Human PD-1 (Homo sapiens (Human), UniProt Q9NZQ7)
# Assay: Enzyme-Linked Immunosorbent Assay (ELISA), PD-1/PD-L1 binding
# Conditions: Table 2; plate-coated human PD-L1, biotinylated human PD-1; read-out: ELISA IC50
# Summary of the method: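 Human PD-L1 coated at 1 μg/mL overnight at 4° C; samples diluted 1:5 and incubated with human PD-1 and biotin (0.3 μg/mL) for 1 h at 37° C. Bound PD-1 detected with streptavidin-HRP and TMB (20 min, 37° C), acid-stopped, absorbance at 450 nm.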
# human PD-L1 / Human PD-1, sequence (Q9NZQ7 19-239): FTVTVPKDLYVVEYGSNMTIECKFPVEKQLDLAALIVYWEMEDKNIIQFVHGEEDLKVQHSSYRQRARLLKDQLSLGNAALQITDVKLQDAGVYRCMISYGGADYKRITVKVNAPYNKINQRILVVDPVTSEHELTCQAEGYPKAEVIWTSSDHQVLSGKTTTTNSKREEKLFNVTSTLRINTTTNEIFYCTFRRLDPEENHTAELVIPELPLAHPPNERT
row,IC50 [µM],SMILES
1,< 0.1,N#Cc1cncc(COc2cc(O[C@H]3CCc4c(-c5ccccc5F)cccc43)c(Cl)cc2CNCP(=O)(O)O)c1 [Example 2.063]
2,0.1 to 0.5,N#Cc1cncc(COc2cc(O[C@H]3CCc4c(-c5ccccc5F)cccc43)c(Cl)cc2CN[C@H](C(=O)O)c2ccccc2)c1 [Example 2.178]
3,< 0.1,C[C@H](O)[C@H](NCc1cc(Cl)c(O[C@H]2CCc3c(-c4ccccc4F)cccc32)cc1OCc1cncc(C#N)c1)C(=O)O [Example 2.127]
4,< 0.1,N#Cc1cncc(COc2cc(O[C@H]3CCc4c(-c5cccc(F)c5)cccc43)c(Cl)cc2CN[C@@H](CO)C(=O)O)c1 [Example 2.010]
5,0.1 to 0.5,COc1cccc(-c2cccc3c2CC[C@@H]3Oc2cc(OCc3cncc(C#N)c3)c(CNCC(C)(C)O)cc2Cl)c1F [Example 2.142]
6,0.1 to 0.5,Cc1ccc(-c2cccc3c2CC[C@@H]3Oc2cc(OCc3cncc(C#N)c3)c(CN[C@@H](CO)C(=O)O)cc2Cl)c(F)c1 [Example 2.068]
7,0.1 to 0.5,COc1cccc(-c2cccc3c2CC[C@@H]3Oc2cc(OCc3cncc(C#N)c3)c(CNCc3n[nH]c(=O)[nH]3)cc2Cl)c1F [Example 2.053]
8,< 0.1,N#Cc1cncc(COc2cc(OC3CCc4c(-c5ccccc5)cccc43)c(Cl)cc2CNCCO)c1 (centres unmarked) [Example 1.004]
9,< 0.1,C[C@H](O)[C@@H](NCc1cc(Cl)c(O[C@H]2CCc3c(-c4ccccc4F)cccc32)cc1OCc1cncc(C#N)c1)C(=O)O [Example 2.122]
10,0.5 to 20,Cc1cc(-c2cccc3c2CC[C@@H]3Oc2cc(OCc3cncc(C#N)c3)c(CN[C@@H](CO)C(=O)O)cc2Cl)ccc1N(C)C [Example 2.026]
11,< 0.1,N#Cc1cncc(COc2cc(OC3CCc4c(-c5ccccc5)cccc43)c(Cl)cc2CN[C@@H](CO)C(=O)O)c1 (some centres unmarked) [Example 1.001]
12,< 0.1,N#Cc1cncc(COc2cc(O[C@H]3CCc4c(-c5ccccc5F)cccc43)c(Cl)cc2CNC2(C(=O)O)CCC2)c1 [Example 2.145]
13,0.1 to 0.5,N#Cc1cncc(COc2cc(O[C@@H]3CCc4c(-c5ccccc5F)cccc43)c(Cl)cc2CN2CCC(O)CC2)c1 [Example 2.136]
14,< 0.1,COc1cccc(-c2cccc3c2CC[C@@H]3Oc2cc(OCc3cncc(C#N)c3)c(CN[C@@H](CO)C(=O)O)cc2Cl)c1 [Example 2.015]
15,0.1 to 0.5,C[C@@H](O)[C@H](NC(=O)CNCc1cc(Cl)c(O[C@H]2CCc3c(-c4ccccc4F)cccc32)cc1OCc1cncc(C#N)c1)C(=O)O [Example 2.135]
16,0.1 to 0.5,N#Cc1cncc(COc2cc(O[C@H]3CCc4c(-c5ccccc5F)cccc43)c(Cl)cc2CNCc2nc(=O)o[nH]2)c1 [Example 2.150]
17,< 0.1,C[C@@H](O)[C@H](NCc1cc(Cl)c(O[C@H]2CCc3c(-c4ccccc4F)cccc32)cc1OCc1cncc(C#N)c1)C(=O)O [Example 2.100]
18,< 0.1,CCOc1cc(O[C@H]2CCc3c(-c4cccc(OC)c4F)cccc32)c(Cl)cc1CN[C@@H](CO)C(=O)O [Example 2.048]
19,0.5 to 20,N#Cc1cncc(COc2cc(O[C@H]3CCc4c(-c5ccccc5F)cccc43)c(Cl)cc2CN2CC(F)C2)c1 [Example 2.120]
20,0.5 to 20,OC1CCN(Cc2cc(Cl)c(O[C@H]3CCc4c(-c5ccccc5F)cccc43)cc2OCc2cnc(N3CCC(O)CC3)nc2)CC1 [Example 2.109]
21,< 0.1,N#Cc1cncc(COc2cc(O[C@H]3CCc4c(-c5ccc6c(c5Cl)OCCO6)cccc43)c(Cl)cc2CN[C@@H](CO)C(=O)O)c1 [Example 2.161]
22,< 0.1,N#Cc1cncc(COc2cc(O[C@H]3CCc4c(-c5ccc6c(c5)OCCO6)cccc43)c(Cl)cc2CN[C@@H](CO)C(=O)O)c1 [Example 2.024]
23,0.5 to 20,COc1cccc(-c2cccc3c2CC[C@@H]3Oc2cc(OCc3cncc(C#N)c3)c(CNCc3ccc(B(O)O)cc3)cc2Cl)c1F [Example 2.066]
24,0.1 to 0.5,CC1(O)CCN(Cc2cc(Cl)c(O[C@H]3CCc4c(-c5ccccc5F)cccc43)cc2OCc2cncc(C#N)c2)CC1 [Example 2.075]
25,0.5 to 20,COc1cc(O[C@H]2CCc3c(-c4cccc(OC)c4F)cccc32)c(Cl)cc1CN1CC(O)C1 [Example 2.041]
26,0.1 to 0.5,CCOc1cc(O[C@H]2CCc3c(-c4ccccc4F)cccc32)c(Cl)cc1CN[C@@H](C)C(=O)O [Example 2.153]
27,0.5 to 20,N#Cc1cncc(COc2cc(O[C@H]3CCc4c(-c5ccccc5F)cccc43)c(Cl)cc2CNCC(=O)NO)c1 [Example 2.151]
28,< 0.1,COc1cccc(-c2cccc3c2CC[C@@H]3Oc2cc(OCc3cncc(C#N)c3)c(CN3CC(O)C3)cc2Cl)c1F [Example 2.051]

# Same assay, conditions: Table 3; plate-coated human PD-L1, biotinylated human PD-1; read-out: ELISA IC50
row,IC50 [µM],SMILES
1,< 0.1,N#Cc1cncc(COc2cc(O[C@H]3CCc4c(-c5ccccc5F)cccc43)c(Cl)cc2CN[C@H]2CC[C@H](O)CC2)c1 [Example 3.068]
2,< 0.1,C[C@@](CO)(NCc1cc(Cl)c(O[C@H]2CCc3c(-c4ccc5c(c4F)OCCO5)cccc32)cc1OCc1cncc(C#N)c1)C(=O)O [Example 3.009]
3,0.1 to 0.5,CC(N[C@@H](CO)C(=O)O)c1cc(Cl)c(O[C@H]2CCc3c(C4=CCCC4)cccc32)cc1OCc1cncc(C#N)c1 (some centres unmarked) [Example 3.112]
4,< 0.1,N#Cc1cncc(COc2cc(O[C@H]3CCc4c(-c5ccccc5F)cccc43)c(Cl)cc2CNCc2cccnn2)c1 [Example 3.084]
5,< 0.1,N#Cc1cncc(COc2cc(O[C@@H]3CCc4c(-c5ccccc5F)cccc43)c(Cl)cc2CN[C@H](CO)C(=O)O)c1 [Example 3.069]
6,< 0.1,N#Cc1cncc(COc2cc(O[C@H]3CCc4c(-c5ccc6c(c5F)OCO6)cccc43)c(Cl)cc2CN[C@@H](CO)C(=O)O)c1 [Example 3.110]
7,0.5 to 20,C[C@@H](O)[C@@H](CC(=O)O)NCc1cc(Cl)c(O[C@@H]2CCc3c(-c4ccccc4F)cccc32)cc1OCc1cncc(C#N)c1 [Example 3.064]
8,0.5 to 20,CC(N[C@@H](CO)C(=O)O)c1cc(Cl)c(O[C@H]2CCc3c(-c4cccc5c4OCCO5)cccc32)cc1OCc1cncc(C#N)c1 (some centres unmarked) [Example 3.113]
9,0.1 to 0.5,CC(NCc1cc(Cl)c(O[C@H]2CCc3c(-c4ccccc4F)cccc32)cc1OCc1cncc(C#N)c1)C(=O)c1ccc(O)c(O)c1 (some centres unmarked) [Example 3.076]
10,0.1 to 0.5,COc1cccc(-c2cccc3c2CC[C@@H]3Oc2cc(OCc3cncc(C#N)c3)c(CN3CCC(O)C(CO)C3)cc2Cl)c1Cl (some centres unmarked) [Example 3.124]
11,0.5 to 20,C[C@@H](O)[C@H](NCc1cc(Cl)c(O[C@H]2CCc3c(-c4ccccc4F)cccc32)cc1OCc1cncc(C#N)c1)C(=O)OC(C)(C)C [Example 3.135]
12,< 0.1,N#Cc1cncc(COc2cc(O[C@H]3CCc4c(-c5ccccc5F)cccc43)c(Cl)cc2CN[C@@H]2CCOC[C@H]2O)c1 [Example 3.037]
13,0.1 to 0.5,N#Cc1cncc(COc2cc(O[C@H]3CCc4c(-c5ccc6c(c5F)OCCO6)cccc43)c(Cl)cc2CN[C@H]2CCCC[C@@H]2C(=O)O)c1 [Example 3.036]
14,< 0.1,N#Cc1cncc(COc2cc(O[C@H]3CCc4c(-c5ccc6c(c5F)OCCO6)cccc43)c(Cl)cc2CN[C@H](CO)C(=O)O)c1 [Example 3.054]
15,< 0.1,CC(NCc1cc(Cl)c(O[C@H]2CCc3c(-c4ccccc4F)cccc32)cc1OCc1cncc(C#N)c1)C(=O)NC(CO)C(=O)O (some centres unmarked) [Example 3.095]
16,< 0.1,N#Cc1cncc(COc2cc(O[C@H]3CCc4c(-c5ccccc5F)cccc43)c(Cl)cc2CN[C@@H]2CCCC[C@@H]2O)c1 [Example 3.032]

row,IC50 [µM],SMILES
1,0.5 to 20,CCc1cc(CNCc2cc(Cl)c(O[C@H]3CCc4c(-c5ccccc5F)cccc43)cc2OCc2cncc(C#N)c2)on1 [Example 3.085]
2,0.1 to 0.5,N#Cc1cncc(COc2cc(O[C@H]3CCc4c(-c5ccccc5F)cccc43)c(Cl)cc2CNCc2ccc(C(N)=O)cc2)c1 [Example 3.092]
3,0.1 to 0.5,CCOc1cc(NC2CCc3c(-c4ccccc4F)cccc32)c(Cl)cc1CN[C@@H](CO)C(=O)O (some centres unmarked) [Example 3.133]
4,< 0.1,COc1cccc(-c2cccc3c2CC[C@@H]3Oc2cc(OCc3cc(C#N)cc(C#N)c3)c(CN[C@@H](CO)C(=O)O)cc2Cl)c1Cl [Example 3.016]
5,< 0.1,N#Cc1cncc(COc2cc(O[C@H]3CCc4c(-c5cc6c(cc5F)OCCO6)cccc43)c(Cl)cc2CN[C@H](O)CO)c1 [Example 3.007]
6,0.1 to 0.5,N#Cc1cncc(COc2cc(O[C@H]3CCc4c(-c5cccc6ccccc56)cccc43)c(Cl)cc2CN[C@@H](CO)C(=O)O)c1 [Example 3.126]
7,< 0.1,C[C@H](NCc1cc(Cl)c(O[C@H]2CCc3c(-c4ccccc4F)cccc32)cc1OCc1cncc(C#N)c1)C(=O)N[C@@H](C)P(=O)(O)O [Example 3.086]
8,0.5 to 20,COC(=O)Cc1ccccc1-c1cccc2c1CC[C@@H]2Oc1cc(OCc2cncc(C#N)c2)c(CN[C@@H](CO)C(=O)O)cc1Cl [Example 3.078]
9,0.5 to 20,O=C(O)[C@H](CO)NCc1cc(Cl)c(O[C@H]2CCc3c(-c4ccc5c(c4F)OCCO5)cccc32)cc1OCc1cc(F)cc(Cl)c1 [Example 3.013]
10,< 0.1,N#Cc1cc(C#N)cc(COc2cc(O[C@H]3CCc4c(-c5ccc6c(c5F)OCCO6)cccc43)c(Cl)cc2CN[C@@H](CO)C(=O)O)c1 [Example 3.006]
11,0.5 to 20,N#Cc1cncc(COc2cc(O[C@H]3CCc4c(-c5ccc(CO)cc5)cccc43)c(Cl)cc2CN[C@@H](CO)C(=O)O)c1 [Example 3.123]
12,0.5 to 20,N#Cc1cncc(COc2cc(O[C@H]3CCc4c(-c5ccccc5F)cccc43)c(Cl)cc2CN2C[C@H](O)[C@@H](O)[C@H](O)[C@H]2CO)c1 [Example 3.073]
13,< 0.1,N#Cc1cncc(COc2cc(O[C@H]3CCc4c(-c5ccc6c(c5F)OCCO6)cccc43)c(Cl)cc2CN[C@@H]2CCC[C@H]2O)c1 [Example 3.033]
14,0.5 to 20,CC(C)OC(=O)[C@@H](NCc1cc(Cl)c(O[C@H]2CCc3c(-c4ccc5c(c4F)OCCO5)cccc32)cc1OCc1cncc(C#N)c1)[C@@H](C)O [Example 3.045]
15,< 0.1,N#Cc1cncc(COc2cc(O[C@H]3CCc4c(-c5cccc(O)c5)cccc43)c(Cl)cc2CN[C@@H](CO)C(=O)O)c1 [Example 3.118]
